These results are taken from ChEMBL document CHEMBL1201862, “PubChem BioAssay data set” (2004).

Test systems include SNB-78; LXFL 529; DMS-273; M19-MEL; HOP-18; DLD-1; RXF 631; XF498; DMS-114.
Experiment in all cases: DTP human tumour cell line panel, 48 h

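Dose response: 5 concentrations. Exposure: 48 h. Format: 96-well plates. Endpoint: linear interpolation; highest concentration if not reached. GI50 is the concentration that inhibits growth by half.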 Active and inactive are the calls of the source. Rule as the data show it: active = GI50 up to about 1.1 µM and inactive = higher.

By GI50 is commonly meant the concentration that inhibits growth by half. With `Cc1ccc(-c2cc(-c3ccco3)c(C#N)c(O)n2)cc1`, the GI50 was > 100 µM (inactive) in the experiment with SNB-78; > 100 µM (inactive) in the experiment with LXFL 529; > 100 µM (inactive) with DMS-273; > 100 µM (inactive) in the experiment on M19-MEL; 13.3 µM (inactive) in the experiment on HOP-18; > 100 µM (inactive) in the experiment with DLD-1.

For the compound `CCN(CC)CCn1c2ccccc2c(=O)c2c(O)ccc(O)c21`, the GI50 with SNB-78 was 23.4 µM (inactive); in the experiment with LXFL 529, 19.9 µM (inactive); with RXF 631 it was > 45.7 µM (inactive); with DMS-273, 99.1 µM (inactive); in the experiment with XF498 it was 21.6 µM (inactive); in the experiment with DMS-114 it was 18.5 µM (inactive).

Consider `CC(C)c1cccc(C(C)C)c1/N=C(/N)C#N`, for which the GI50 in the experiment on SNB-78 is 99.1 µM (inactive); in the experiment with LXFL 529, > 67.1 µM (inactive); in the experiment on RXF 631, > 100 µM (inactive); in the experiment on DMS-273, > 43 µM (inactive); with M19-MEL, > 60 µM (inactive); in the experiment on HOP-18, > 86.1 µM (inactive). The GI50 was > 100 µM (inactive) in the experiment with XF498, 37 µM (inactive) in the experiment with DLD-1 and 29.9 µM (inactive) with DMS-114.

As for `OCCCNc1ccnc2cc(Cl)ccc12`, the GI50 in the experiment on SNB-78, in the experiment on LXFL 529, with M19-MEL, in the experiment with HOP-18, with XF498 and with DLD-1 was > 100 µM (inactive) each time. Further, the GI50 in the experiment on DMS-114 was > 100 µM (inactive).

As to `NCCCOCC(=O)O`, the GI50 in the experiment on SNB-78, with LXFL 529, in the experiment with DMS-273, in the experiment on M19-MEL and in the experiment with DMS-114 was > 100 µM (inactive) in each case.

Turning to `N#CCCn1c(S)nnc1CCC(=O)Nc1ccc(Cl)cc1Cl`, the GI50 in the experiment with SNB-78, in the experiment on LXFL 529, with RXF 631, with DMS-273, in the experiment with M19-MEL and in the experiment on XF498 was > 100 µM (inactive) throughout. Moreover, the GI50 in the experiment on DLD-1 and in the experiment on DMS-114 was > 100 µM (inactive) throughout.

Take `CCOC(=O)c1sc2c(sc(=O)n2-c2ccccc2)c1O`: the GI50 was > 100 µM (inactive) in the experiment with SNB-78; > 100 µM (inactive) with LXFL 529; 58.6 µM (inactive) in the experiment on RXF 631; 29.4 µM (inactive) with DMS-273; > 100 µM (inactive) in the experiment on M19-MEL; > 100 µM (inactive) in the experiment with HOP-18. Besides, the GI50 with XF498 is > 100 µM (inactive); with DLD-1, 46.3 µM (inactive); with DMS-114 it was 98.9 µM (inactive).

With `c1cnc2c(c1)-n1cccc1C1(CCCCC1)NN2`, the GI50 was 46.5 µM (inactive) with DMS-273, 8.18 µM (inactive) in the experiment on HOP-18, 74.3 µM (inactive) in the experiment with XF498 and 53.1 µM (inactive) in the experiment on DMS-114.

Consider `O=C1/C(=C(\Nc2ccccc2)c2ccccc2)C=NN1c1ccccc1`, for which the GI50 in the experiment on SNB-78 was > 100 µM (inactive); with LXFL 529, > 100 µM (inactive); with RXF 631, > 100 µM (inactive); in the experiment on DMS-273 it was 61.8 µM (inactive); in the experiment with HOP-18 it was < 0.01 µM (active); in the experiment with XF498, > 100 µM (inactive). The GI50 in the experiment with DLD-1 is > 100 µM (inactive); in the experiment with DMS-114, 50.6 µM (inactive).

For `O=c1oc(=O)c2oc3ccccc3oc1=2`, the GI50 in the experiment on LXFL 529, in the experiment on DMS-273, in the experiment with M19-MEL, in the experiment on HOP-18, in the experiment with XF498 and in the experiment with DLD-1 was > 100 µM (inactive) in each case. Besides, in the experiment with DMS-114, the GI50 is > 100 µM (inactive).

For the compound `COC(=O)C(=O)C(C(=O)C=C(C)C)C(=O)C(=O)Nc1nc2ccc([N+](=O)[O-])cc2s1` (stereo not drawn), the GI50 with SNB-78 is 58.2 µM (inactive); in the experiment with LXFL 529, 83.4 µM (inactive); in the experiment with DMS-273 it was 47.6 µM (inactive); in the experiment on M19-MEL it was > 100 µM (inactive); in the experiment on HOP-18 it was 4.51 µM (inactive); with DLD-1, 51.8 µM (inactive). The GI50 with DMS-114 is 31.4 µM (inactive).

As for `C=CCNC(=O)NCCCC(NC(C)=O)C(=O)NCc1ccccc1` (stereo not drawn), the GI50 in the experiment on LXFL 529, with RXF 631, in the experiment on DMS-273, in the experiment with M19-MEL, in the experiment on HOP-18 and in the experiment with XF498 was > 100 µM (inactive) each time.

Take `COc1cc2c(c(OC)c1O)-c1ccc(SC)c(=O)cc1C(NC(C)=O)CC2` (stereo not drawn): the GI50 in the experiment on SNB-78 is < 0.01 µM (active); in the experiment on LXFL 529, < 0.01 µM (active); in the experiment on DMS-273, < 0.01 µM (active); in the experiment on M19-MEL, < 0.01 µM (active); in the experiment with DLD-1 it was 0.0597 µM (active); in the experiment with DMS-114, < 0.01 µM (active).

With `OCC(O)COc1c(Cl)ccc(Cl)c1Cl` (stereo not drawn), the GI50 in the experiment on SNB-78, in the experiment with LXFL 529, in the experiment on DMS-273, in the experiment on M19-MEL, in the experiment with HOP-18 and in the experiment on XF498 was > 100 µM (inactive) in each case. The GI50 in the experiment on DLD-1 and in the experiment on DMS-114 was > 100 µM (inactive) in each case.

As to `O=C(CCN1CCC(CCO)CC1)Nc1ccc2c(c1)C(=O)c1ccc(NC(=O)CCN3CCC(CCO)CC3)cc1C2=O`, the GI50 was 3.43 µM (inactive) with SNB-78; 5.25 µM (inactive) in the experiment on LXFL 529; 6.81 µM (inactive) in the experiment with DMS-273; 97.5 µM (inactive) in the experiment with M19-MEL; 25.5 µM (inactive) in the experiment on HOP-18; 10.4 µM (inactive) with DLD-1. The GI50 in the experiment on DMS-114 was 6.53 µM (inactive).

For `CN1C(=O)N(C)C2(O)c3ccccc3C(=O)C12O` (stereo not drawn), the GI50 in the experiment with SNB-78, in the experiment with LXFL 529, in the experiment with RXF 631, with DMS-273, with M19-MEL and with HOP-18 was > 100 µM (inactive) throughout. Further, the GI50 in the experiment with DLD-1 and in the experiment on DMS-114 was > 100 µM (inactive) each time.

`OCC(O)C(OC1OC(CO)C(O)C(O)C1O)c1nn(-c2ccccc2)c2nc3cc(Cl)ccc3nc12` (stereo not drawn): the GI50 in the experiment with SNB-78, with LXFL 529, in the experiment on M19-MEL, in the experiment on XF498, in the experiment with DLD-1 and in the experiment with DMS-114 was > 100 µM (inactive) in each case.

`Cc1ccc(S(=O)(=O)c2c(N)n(CCN(C)C)c3nc4ccccc4nc23)cc1`: the GI50 in the experiment with SNB-78, with LXFL 529, with DMS-273, in the experiment with M19-MEL, in the experiment with HOP-18 and in the experiment with XF498 was > 100 µM (inactive) in each case. Further, the GI50 in the experiment with DLD-1 and in the experiment with DMS-114 was > 100 µM (inactive) each time.

As to `CC(=O)OC1(C(C)=O)CC2(c3ccccc3)OC1(c1ccccc1)c1ccccc12` (stereo not drawn), the GI50 in the experiment on SNB-78 was 31.7 µM (inactive); in the experiment on LXFL 529 it was 7.53 µM (inactive); in the experiment on RXF 631, 16.9 µM (inactive); in the experiment on DMS-273 it was 5.08 µM (inactive); in the experiment on M19-MEL it was 9.77 µM (inactive); with HOP-18 it was 42.5 µM (inactive). Besides, the GI50 in the experiment with XF498 is 5.51 µM (inactive); in the experiment on DLD-1 it was 8.34 µM (inactive); in the experiment with DMS-114 it was 3.21 µM (inactive).

In the case of `Cc1cc2c(s1)C(=O)c1sccc1C2=O`, the GI50 in the experiment on LXFL 529 is 1.19 µM (inactive); in the experiment with DMS-273, 1.24 µM (inactive); in the experiment on HOP-18 it was 1.48 µM (inactive); with XF498, 1.55 µM (inactive); with DLD-1, 1.64 µM (inactive).

In the case of `CC(=O)Nc1ccc(/C=C/C(=O)c2sc(C(N)=S)nc2C)cc1`, the GI50 in the experiment on SNB-78, in the experiment on DMS-273, with M19-MEL, in the experiment on HOP-18, with DLD-1 and with DMS-114 was > 100 µM (inactive) throughout.

On to `CN1CCC23c4c5ccc(O)c4OC2C(=NN=C2CCC4(O)C6Cc7ccc(O)c8c7C4(CCN6C)C2O8)CCC3(O)C1C5` (stereo not drawn), for which the GI50 in the experiment with LXFL 529, with RXF 631, in the experiment with DMS-273, in the experiment on M19-MEL, with HOP-18 and with XF498 was > 100 µM (inactive) throughout. Further, the GI50 in the experiment on DLD-1 and with DMS-114 was > 100 µM (inactive) in each case.

In the case of `CC(C)(CN1CCCCC1)C(=O)CC(SCCS(=O)(=O)O)c1ccc(Br)cc1` (stereo not drawn), the GI50 in the experiment with SNB-78 is 4.46 µM (inactive); in the experiment on LXFL 529, 1.24 µM (inactive); with DMS-273, 1.65 µM (inactive); with M19-MEL, 1.66 µM (inactive); with HOP-18, 0.832 µM (active); with XF498 it was 0.562 µM (active). Further, the GI50 is 1.67 µM (inactive) with DLD-1 and 1.75 µM (inactive) in the experiment on DMS-114.

As to `CNC(=O)OCc1nc(SC2CCCCO2)n(C)c1COC(=O)NC` (stereo not drawn), the GI50 with SNB-78, in the experiment with LXFL 529, with RXF 631, in the experiment with DMS-273, in the experiment on M19-MEL and in the experiment with HOP-18 was > 100 µM (inactive) throughout. In addition, the GI50 in the experiment on XF498, with DLD-1 and with DMS-114 was > 100 µM (inactive) each time.

Take `CC(=O)O[C@H]1C(N(C)C(=O)c2ccccc2)CC[C@]2(C)C3CC[C@@]4(C)C(CC(O)[C@@H]4C(C)N(C)C)[C@@H]3CCC12` (stereo partly drawn): the GI50 in the experiment with SNB-78, in the experiment with LXFL 529, in the experiment with DMS-273, in the experiment with M19-MEL, with HOP-18 and in the experiment with XF498 was > 100 µM (inactive) each time. Further, the GI50 in the experiment with DLD-1 and with DMS-114 was > 100 µM (inactive) in each case.
